According to ChEMBL document CHEMBL3045848, “Microwave-assisted solvent-free synthesis of biologically active novel heterocycles from 3-formylchromones” (2011):
Active and inactive are the calls of the source. The rule behind the calls is not given here.

How the values were obtained:
[1] = test system: Candida albicans; test: Antifungal activity against Candida albicans IOA-109 at 100 ug/ml after 18 to 48 hr; assay type: functional; details: for zone of inhibition at 100 µg/mL: read-out: DIZ
[2] = test system: Salmonella typhimurium; test: Antibacterial activity against Salmonella enterica subsp. enterica serovar Typhimurium MTCC 98 at 100 ug/ml after 24 hr by filter paper disk method; assay type: functional; details: for zone of inhibition at 100 µg/mL: MTCC 98, 24 h, read-out: DIZ
[3] = test system: Staphylococcus aureus; test: Antibacterial activity against Staphylococcus aureus SA 22 at 100 ug/ml after 24 hr by filter paper disk method; assay type: functional; details: for zone of inhibition at 100 µg/mL: SA 22, 24 h, read-out: DIZ
[4] = test system: Aspergillus fumigatus; test: Antifungal activity against Aspergillus fumigatus at 100 ug/ml after 72 hr; assay type: functional; details: for zone of inhibition at 100 µg/mL: read-out: DIZ
[5] = test system: Escherichia coli; test: Antibacterial activity against Escherichia coli K-12 at 100 ug/ml after 24 hr by filter paper disk method; assay type: functional; details: for zone of inhibition at 100 µg/mL: K-12, 24 h, read-out: DIZ
[6] = test system: Aspergillus niger; test: Antifungal activity against Aspergillus niger at 100 ug/ml after 72 hr; assay type: functional; details: for zone of inhibition at 100 µg/mL: read-out: DIZ
[7] = test system: Bacillus subtilis; test: Antibacterial activity against Bacillus subtilis MTCC 121 at 100 ug/ml after 24 hr by filter paper disk method; assay type: functional; details: for zone of inhibition at 100 µg/mL: MTCC 121, 24 h, read-out: DIZ
[8] = test system: Aspergillus niger; test: Antifungal activity against Aspergillus niger at 30 ug/disk after 72 hr; assay type: functional, organism-based
[9] = test system: Aspergillus fumigatus; test: Antifungal activity against Aspergillus fumigatus at 30 ug/disk after 72 hr; assay type: functional, organism-based
[10] = test system: Escherichia coli; test: Antibacterial activity against Escherichia coli K-12 at 30 ug/disc after 24 hr by filter paper disk method; assay type: functional; details: K-12, 24 h, read-out: DIZ
[11] = test system: Bacillus subtilis; test: Antibacterial activity against Bacillus subtilis MTCC 121 at 30 ug/disk after 24 hr by filter paper disk method; assay type: functional; details: MTCC 121, 24 h, read-out: DIZ
[12] = test system: Salmonella typhimurium; test: Antibacterial activity against Salmonella enterica subsp. enterica serovar Typhimurium MTCC 98 at 30 ug/disc after 24 hr by filter paper disk method; assay type: functional; details: MTCC 98, 24 h, read-out: DIZ
[13] = test system: Staphylococcus aureus; test: Antibacterial activity against Staphylococcus aureus SA 22 at 30 ug/disc after 24 hr by filter paper disk method; assay type: functional; details: SA 22, 24 h, read-out: DIZ

| Compound | zone of inhibition at 100 µg/mL [1] [mm] | zone of inhibition at 100 µg/mL [2] [mm] | zone of inhibition at 100 µg/mL [3] [mm] | diameter of the inhibition zone (DIZ) [4] | zone of inhibition at 100 µg/mL [5] [mm] | diameter of the inhibition zone (DIZ) [6] | diameter of the inhibition zone (DIZ) [7] | zone of inhibition at 100 µg/mL [4] [mm] | zone of inhibition at 100 µg/mL [6] [mm] | zone of inhibition at 100 µg/mL [7] [mm] | also measured |
| --- | --- | --- | --- | --- | --- | --- | --- | --- | --- | --- | --- |
| Cc1ccc2occ(C(Br)C(Br)C(=O)C3C(=O)N(C)C(=O)N(C)C3=O)c(=O)c2c1 (stereo not given) | 17 | 10 | 12 | inactive | 15 | inactive | inactive | – | – | – | – |
| CN1C(=O)C(C2=NN(c3ccccc3)C(c3coc4ccccc4c3=O)C2)C(=O)N(C)C1=O (stereo not given) | 15 | 12 | – | – | 8 | inactive | inactive | 12 | – | – | diameter of the inhibition zone (DIZ) [3]: inactive |
| NYSTATIN | – | – | – | – | – | – | inactive | – | – | – | diameter of the inhibition zone (DIZ) [2]: inactive; diameter of the inhibition zone (DIZ) [3]: inactive; diameter of the inhibition zone (DIZ) [5]: inactive; inhibition zone (IZ) [8]: 18 mm; inhibition zone (IZ) [9]: 18 mm |
| Cc1ccc2occ(/C=C/C(=O)C3C(=O)N(C)C(=O)N(C)C3=O)c(=O)c2c1 | 12 | 12 | 12 | – | 20 | – | – | 14 | 12 | 16 | – |
| CN1C(=O)C(C2=NN(c3nc4ccccc4s3)C(c3coc4ccccc4c3=O)C2)C(=O)N(C)C1=O (stereo not given) | 14 | 9 | 13 | inactive | 18 | – | – | – | 14 | 10 | – |
| CN1C(=O)C(C(=O)C(Br)C(Br)c2coc3ccccc3c2=O)C(=O)N(C)C1=O (stereo not given) | 15 | 16 | 8 | inactive | 14 | inactive | inactive | – | – | – | – |
| O=C(N[C@H](CO)[C@H](O)c1ccc([N+](=O)[O-])cc1)C(Cl)Cl [CHLORAMPHENICOL] | – | – | – | inactive | – | inactive | – | – | – | – | zone of inhibition at 30 µg/disc [10]: 25 mm; zone of inhibition at 30 µg/disc [11]: 24 mm; diameter of the inhibition zone (DIZ) [1]: inactive; zone of inhibition at 30 µg/disc [12]: 20 mm; zone of inhibition at 30 µg/disc [13]: 26 mm |
| CN1C(=O)C(C2=NNC(c3coc4ccccc4c3=O)C2)C(=O)N(C)C1=O (stereo not given) | 14 | 12 | 16 | – | 15 | – | – | 14 | 8 | 13 | – |
| CN1C(=O)C(C(=O)/C=C/c2coc3ccccc3c2=O)C(=O)N(C)C1=O | 16 | 16 | 15 | – | 20 | – | – | 10 | 8 | 20 | – |
| Cc1ccc2occ(C3CC(C4C(=O)N(C)C(=O)N(C)C4=O)=NN3c3ccccc3)c(=O)c2c1 (stereo not given) | 15 | 19 | – | inactive | – | inactive | inactive | – | – | – | diameter of the inhibition zone (DIZ) [3]: inactive; diameter of the inhibition zone (DIZ) [5]: inactive |
| CN1C(=O)C(c2cc(-c3coc4ccccc4c3=O)[nH]n2)C(=O)N(C)C1=O | – | 12 | 14 | inactive | 12 | inactive | – | – | – | 12 | diameter of the inhibition zone (DIZ) [1]: inactive |
| CN1C(=O)C(C2=NC(=O)NC(c3coc4ccccc4c3=O)C2)C(=O)N(C)C1=O (stereo not given) | – | 11 | 8 | inactive | 15 | inactive | inactive | – | – | – | diameter of the inhibition zone (DIZ) [1]: inactive |
| Cc1ccc2occ(C3CC(C4C(=O)N(C)C(=O)N(C)C4=O)=NN3)c(=O)c2c1 (stereo not given) | 17 | 10 | 11 | – | 12 | inactive | – | 10 | – | 13 | – |
